Measured values taken from patent publication EP4818176A1, “TETRACYCLIC DERIVATIVE INHIBITOR, AND PREPARATION METHOD AND USE THEREFOR” (Shanghai Hansoh Biomedical Co., Ltd., priority 2023, dated 2025).
Where two headings read alike, the source gives them in different places.

Experiments:
[1] = biological target: T1, PRMT5/MEP50-MTA protein complex (Homo sapiens, UniProt O14744); assay: Thermal shift assay: thermal stability (melting temperature) of PRMT5/MEP50-MTA protein complex; format: binding; details: final compound concentration 8 µM; 2 µM PRMT5/MEP50, 2 µM MTA; Tm minus Tm of DMSO vehicle control
T1 construct: purchased Viva Biotech
Excerpt: Test Example 1: Determination of the ability of the compounds of the present invention to improve the thermal stability (melting temperature) of the PRMT5/MEP50-MTA protein complex.
1 Experimental objective: The objective of this test example is to determine the ability of the compound to improve the thermal stability of the PRMT5/MEP50-MTA protein complex, resulting in an increase in the protein melting temperature. 2 Experimental instruments: Quantitative PCR instrument (Quantstudio6 Flex) was purchased from Life Technologies; pipettes were purchased from Eppendorf or Rainin. 3 Experimental reagents and consumables: PRMT5/MEP50 protein was prepared by Viva Biotech; HEPES was purchased from Thermo Fisher Scientific (Cat. No. 15630080); DTT was purchased from Sigma (Cat. No. 43816-10ml); sodium chloride was purchased from Invitrogen (Cat. No. AM9760G); Protein Thermal Shift™ Dye Kit was purchased from Thermo Fisher Scientific (Cat. No. 4461146); methylthioadenosine (MTA) was purchased from Sigma (Cat. No. D5011). 4 Experimental method: In this experiment, the thermal shift method was used to measure the change in the melting temperature (Tm) of the PRMT5/MEP50-MTA protein complex before and after compound binding, thereby characterising the ability of the compound to improve the thermal stability of the PRMT5/MEP50-MTA protein complex. A solution containing 50 mM HEPES, 10 mM DTT, 2 µM MTA, SYPRO Orange and 250 mM NaCl was prepared as the experimental buffer. Human PRMT5/MEP50 protein was added to a final concentration of 2 µM, and the mixture was incubated at room temperature for 30 minutes. The above reaction mixture was aliquoted into 8-strip PCR tubes at 19.5 µL per tube. Then 0.5 µL of test compound or DMSO was added to each tube, providing a total reaction volume of 20 µL and a final compound concentration of 8 µM. 2.5% DMSO was set as the vehicle control. After incubation at room temperature for 10 minutes, the PCR tubes were placed in a PCR instrument, and the melt curve function was selected to measure the melting temperature of the PRMT5/MEP50-MTA protein complex in different treatment groups (heated from 25°C to 95°C, 0.03°C/s). 5 Experimental data processing method: The experimental data files from the PCR instrument were imported into the thermal shift software to obtain the melting temperature (Tm) for each treatment group.

HCT116 wild-type cells = assay: Cell proliferation inhibition (CellTiter-Glo), HCT116 wild-type cells; format: cell-based
Excerpt: (§1) Test Example 2: Determination of the inhibitory effect of the compounds of the present invention on the proliferation activity of HCT116 and MTAP Knockout HCT116 cells.
(§2) 1 Experimental objective: The objective of this test example is to determine the inhibitory effect of the compound on the proliferation activity of HCT116 wild-type and HCT116 MTAP knockout cells. 2 Experimental instruments: Centrifuge (Eppendorf 5810R); microplate reader (BioTek Synergy H1 or PerkinElmer Envision); pipette (Eppendorf or Rainin). 3 Experimental reagents: HCT116 and MTAP Knockout HCT116 cells were purchased from Nanjing Cobioer; Cell Titer-Glo was purchased from Promega (Cat. No. G7573); McCoy'5A was purchased from Gibco (Cat. No. 12330031); FBS was purchased from Gibco (Cat. No. 10091148); PBS was purchased from Gibco (Cat. No. 10010023); trypsin was purchased from Gibco (Cat. No. 25200056); cell culture plates were purchased from Corning (Cat. No. 3610). 4 Experimental method: HCT116 and MTAP Knockout HCT116 cells were cultured in McCoy'5A medium containing 10% FBS until an appropriate cell density was reached. The cells were then collected and adjusted to a suitable concentration using complete medium. The cell suspension was seeded into a 96-well plate at 90 µL per well and allowed to adhere overnight in a 37°C, 5% CO2 incubator. Compound solutions of various concentrations were prepared using DMSO and culture medium, with a vehicle control set. The compound solutions were added to the 96-well plate at 10 µL per well, and the plate was incubated in a 37°C, 5% CO2 incubator for an additional 72-240 hours. After incubation, CellTiter-Glo solution was added, and the mixture was mixed uniformly by shaking, followed by incubation in the dark for 10 to 30 minutes. Luminescence was measured using a Synergy H1 or Envision microplate reader. 5 Experimental data processing method: The inhibition rate was calculated using the luminescence signal values, and the concentrations along with the inhibition rates were subjected to non-linear regression curve fitting using Graphpad Prism software to obtain the IC50 values.

[2] = tested on: MTAP Knockout HCT116 cells; assay: Cell proliferation inhibition (CellTiter-Glo), HCT116 MTAP knockout cells; format: cell-based; details: for Selectivity: HCT116 IC50 versus MTAP Knockout HCT116 IC50
Excerpt: as §1, §2

[3] = Pharmacokinetics in rats (plasma) after oral administration; format: in vivo; details: SD rats, p.o. 5 mg/kg; for MRT inf: read-out: MRT0-∞
Procedure: Test Example 4: Determination of the pharmacokinetics of the compounds of the present invention in rats (plasma) after oral administration.
1 Study objective: SD rats were used as test animals to study the pharmacokinetic behaviour of the following example compounds in rats (plasma) after oral administration at a dose of 5 mg/kg. 2 Test scheme • 2.1 Test drugs: Vehicle formula: 0.5% CMC-Na (1% Tween 80); the examples of the present invention, made in house. • 2.2 Test animals: 3 SD rats per group, male, purchased from Shanghai Bikai Keyi Biotechnology Co., Ltd., with animal license number (SCXK (Shanghai) 2018-0006, No.20180006037467). • 2.3 Administration: 3 SD rats per group, male, were fasted overnight and then respectively administered PO at a dose of 5 mg/kg and a volume of 10 mL/kg. • 2.4 Sample collection: 0.2 mL of blood was collected from the jugular vein of rats before administration and at 0, 0.25, 0.5, 1, 2, 4, 6, 8 and 24 h after administration, and placed in EDTA-K2test tubes, and the test tubes were centrifuged at 6,000 rpm at 4°C for 6 min to separate the plasma, which was stored at -80°C. The animals were fed 4 h after administration. • 2.5 Sample treatment • 1) 160 uL of acetonitrile was added to 40 uL of plasma sample for precipitation, and after mixing, the mixture was centrifuged at 3,500 × g for 5-20 minutes. • 2) 100 uL of the treated supernatant solution was taken for LC/MS/MS analysis to determine the concentration of the test compounds. • 2.6 Liquid phase analysis • Liquid phase conditions: Shimadzu LC-20AD pump;mass spectrometry conditions: AB Sciex API 4000 mass spectrometer • Chromatographic column: Phenomenex Gemiu 5 um C18 50 × 4.6 mm • Mobile phase: solution A: 0.1% formic acid in water, solution B: methanol • Flow rate: 1.0 mL/min, elution time: 0-4.0 min, with eluents as follows:
Experimental results and analysis: The main pharmacokinetic parameters were calculated using WinNonlin 8.2.

[4] = Homo sapiens, HCT-116, read-out: HCT116 IC50
[5] = Homo sapiens, HCT-116, read-out: MTAP Knockout HCT116 IC50
[6] = Homo sapiens, HCT-116, HCT116 wild-type cells, proliferation inhibition, Cell Titer-Glo, read-out: HCT116 IC50
[7] = Homo sapiens, HCT-116, MTAP Knockout HCT116 cells, proliferation inhibition, Cell Titer-Glo, read-out: MTAP Knockout HCT116 IC50
[8] = rat, in vivo, po, read-out: Cmax
[9] = rat, in vivo, po, read-out: tmax

T1 sequence (O14744 whole entry): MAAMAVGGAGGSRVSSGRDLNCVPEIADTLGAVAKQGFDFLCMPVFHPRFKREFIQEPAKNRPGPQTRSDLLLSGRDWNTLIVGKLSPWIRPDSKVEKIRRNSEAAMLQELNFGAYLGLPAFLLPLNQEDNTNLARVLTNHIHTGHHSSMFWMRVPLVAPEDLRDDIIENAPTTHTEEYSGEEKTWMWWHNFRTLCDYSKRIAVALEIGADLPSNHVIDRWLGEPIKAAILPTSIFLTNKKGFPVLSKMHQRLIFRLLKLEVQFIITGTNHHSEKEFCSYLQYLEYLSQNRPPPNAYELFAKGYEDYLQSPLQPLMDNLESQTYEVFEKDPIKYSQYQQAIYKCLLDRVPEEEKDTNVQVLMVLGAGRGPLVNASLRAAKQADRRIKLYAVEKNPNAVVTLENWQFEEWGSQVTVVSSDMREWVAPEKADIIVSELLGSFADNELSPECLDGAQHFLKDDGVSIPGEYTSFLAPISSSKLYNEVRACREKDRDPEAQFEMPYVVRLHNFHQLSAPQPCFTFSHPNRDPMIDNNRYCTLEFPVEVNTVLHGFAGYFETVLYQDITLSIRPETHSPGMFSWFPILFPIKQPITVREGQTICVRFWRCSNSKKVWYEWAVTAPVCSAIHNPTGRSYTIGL
T1 sequence (Q9BQA1 whole entry partner): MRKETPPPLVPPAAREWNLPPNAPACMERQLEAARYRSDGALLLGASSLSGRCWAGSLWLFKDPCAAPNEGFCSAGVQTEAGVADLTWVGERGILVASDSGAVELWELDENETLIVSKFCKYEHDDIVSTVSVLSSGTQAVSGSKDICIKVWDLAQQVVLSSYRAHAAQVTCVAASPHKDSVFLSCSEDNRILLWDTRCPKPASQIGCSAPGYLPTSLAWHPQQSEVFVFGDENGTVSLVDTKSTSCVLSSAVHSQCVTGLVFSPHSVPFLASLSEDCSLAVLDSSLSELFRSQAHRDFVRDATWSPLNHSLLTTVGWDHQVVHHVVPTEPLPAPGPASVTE

Nc1nc2cc3c(cc2c2c1COC2)C(=O)N(Cc1ccc(S(F)(F)(F)(F)F)cn1)CCCOC3 [Example 434, 4-Amino-3-methyl-12-((5-(pentafluorosulphanyl)pyridin-2-yl)methyl)-3,7,9,10,11,12-hexahydrofuro[3,4-c][1,5]oxazolo[7,8-g]quinolin-13(1H)-one]
ΔTm at 8 µM [1]: 12.2 °C
IC50 (HCT116 wild-type cells; [4]): 578 nM
Selectivity [2]: 87
IC50 [2, 5]: 6.7 nM
AUC(0-inf) ([3]; rat, po): 2330 ng·h/mL
half-life ([3]; rat, po): 186 min
Cmax ([3]; rat, po, read-out: Cmax): 273 ng/mL
MRT inf ([3]; rat, po): 5.3 h
Tmax ([3]; rat, po, read-out: tmax): 2 h

Nc1nc2cc3c(cc2n2cncc12)C(=O)N(Cc1ccc(S(F)(F)(F)(F)F)cn1)CCCOC3 [Example 414, 4-Amino-12-((5-(pentafluoro-λ^6-sulphanyl)pyridin-2-yl)methyl)-9,10,11,12-tetrahydroimidazo[1,5-a][1,5]oxazonino[8,7-g]quinoxalin-13(7H)-one]
ΔTm at 8 µM [1]: 12.3 °C
IC50 (HCT116 wild-type cells; [6]): 229 nM
Selectivity [2]: 47
IC50 [2, 7]: 4.9 nM
AUC(0-inf) ([3]; male, rat, po): 949 ng·h/mL
half-life ([3]; male, rat, po): 78 min
Cmax ([3]; male, rat, po, read-out: Cmax): 208 ng/mL
MRT inf ([3]; male, rat, po): 3.3 h
Tmax ([3]; male, rat, po, read-out: tmax): 2 h

(Z)-4-Amino-12-((5-(trifluoromethyl)pyridin-2-yl)methyl)-9,10,11,12-tetrahydro-13H-azonino[4,3-g]imidazo[1,5-a]quinoxalin-13-one [Example 171]
ΔTm (°C) [1]: 12.03 °C
IC50 (HCT116 wild-type cells; HCT116 wild-type cells, proliferation inhibition, Cell Titer-Glo, read-out: HCT116 IC50): 236 nM
Selectivity [2]: 90
IC50 ([2]; MTAP Knockout HCT116 cells, proliferation inhibition, Cell Titer-Glo, read-out: MTAP Knockout HCT116 IC50): 2.6 nM
AUC 0-∞ [3]: 1058 ng·h/mL
Cmax [3]: 283 ng/mL
MRT0-∞ [3]: 2.9 h
Tmax [3]: 1.0 h
t1/2 [3]: 1.6 h

Nc1nc2cc3c(cc2c2c1COC2)C(=O)N(C1COCc2nc(C(F)(F)F)ccc21)CCC/C=C\3 (single isomer, unassigned) [Example 165-P1]
ΔTm at 8 µM [1]: 11.9 °C
IC50 (HCT116 wild-type cells; [6]): 682 nM
Selectivity [2]: 132
IC50 [2, 7]: 5.2 nM
AUC(0-inf) ([3]; male, rat, po): 999 ng·h/mL
half-life ([3]; male, rat, po): 90 min
Cmax ([3]; male, rat, po, read-out: Cmax): 321 ng/mL
MRT inf ([3]; male, rat, po): 2.5 h
Tmax ([3]; male, rat, po, read-out: tmax): 1 h

C[C@H]1OCc2c1c(N)nc1cc3c(cc21)C(=O)N(Cc1ccc(S(F)(F)(F)(F)F)cn1)CCCOC3 [Example 437-P1, (R)-4-Amino-3-methyl-12-((5-(pentafluorosulphanyl)pyridin-2-yl)methyl)-3,7,9,10,11,12-hexahydrofuro[3,4-c][1,5]oxazolo[7,8-g]quinolin-13(1H)-one]
ΔTm at 8 µM [1]: 12.6 °C
IC50 (HCT116 wild-type cells; [4]): 187 nM
Selectivity [2]: 85
IC50 [2, 5]: 2.2 nM
AUC(0-inf) ([3]; rat, in vivo, po): 2050 ng·h/mL
half-life ([3]; rat, in vivo, po): 144 min
Cmax [3, 8]: 318 ng/mL
MRT inf ([3]; rat, in vivo, po): 3.7 h
Tmax [3, 9]: 2 h

Nc1nc2cc3c(cc2n2cncc12)C(=O)N(Cc1ccc(C(F)(F)F)cn1)CC/C=C\3 [Example 416, (Z)-4-Amino-11-(5-(trifluoromethyl)pyridin-2-yl)methyl-10,11-dihydroazocino[4,3-g]imidazo[1,5-a]quinoxalin-12(9H)-one]
ΔTm at 8 µM [1]: 12.4 °C
IC50 (HCT116 wild-type cells; [6]): 222 nM
Selectivity [2]: 93
IC50 [2, 7]: 2.4 nM
AUC(0-inf) ([3]; male, rat, po): 1520 ng·h/mL
half-life ([3]; male, rat, po): 78 min
Cmax ([3]; male, rat, po, read-out: Cmax): 395 ng/mL
MRT inf ([3]; male, rat, po): 2.9 h
Tmax ([3]; male, rat, po, read-out: tmax): 2 h

Nc1nc2cc3c(cc2n2cncc12)C(=O)N(C1COc2cc(C(F)(F)F)ccc21)CCC/C=C\3 (racemic) [Example 164, (Z)-4-Amino-12-(6-(trifluoromethyl)-2,3-dihydrobenzofuran-3-yl)-9,10,11,12-tetrahydro-13H-azo[4,3-g]imidazo[1,5-a]quinoxalin-13-one]
ΔTm at 8 µM [1]: 11.2 °C
IC50 (HCT116 wild-type cells; [6]): 6630 nM
Selectivity [2]: 406
IC50 [2, 7]: 16 nM
AUC(0-inf) ([3]; rat, in vivo, po): 2520 ng·h/mL
half-life ([3]; rat, in vivo, po): 282 min
Cmax [3, 8]: 183 ng/mL
MRT inf ([3]; rat, in vivo, po): 7.6 h
Tmax [3, 9]: 4 h

Nc1nc2cc3c(cc2c2c1COC2)C(=O)N(Cc1ccc(C(F)(F)F)cn1)CC/C=C\3 [Example 638, (Z)-4-Amino-11-((5-(trifluoromethyl)pyridin-2-yl)methyl)-3,9,10,11-tetrahydronaphthyrido[3,4-g]furo[3,4-e]quinoxalin-12(1H)-one]
ΔTm at 8 µM [1]: 12.3 °C
IC50 (HCT116 wild-type cells; [4]): 318 nM
Selectivity [2]: 71
IC50 [2, 5]: 4.5 nM
AUC(0-inf) ([3]; rat, po): 929 ng·h/mL
half-life ([3]; rat, po): 108 min
Cmax ([3]; rat, po, read-out: Cmax): 241 ng/mL
MRT inf ([3]; rat, po): 3.5 h
Tmax ([3]; rat, po, read-out: tmax): 1.7 h

CC1OCc2c1c(N)nc1cc3c(cc21)C(=O)N(Cc1ccc(-c2c(F)cccc2F)cn1)CCCNC3 (stereo not drawn) [Example 435, 4-Amino-12-((5-(2,6-difluorophenyl)pyridin-2-yl)methyl)-3-methyl-1,3,7,8,9,10,11,12-octahydro-13H-[1,5]diamine[7,8-g]furo[3,4-c]quinolin-13-one]
ΔTm at 8 µM [1]: 12.8 °C
IC50 (HCT116 wild-type cells; [4]): 78 nM
Selectivity [2]: 41
IC50 [2, 5]: 1.9 nM

CC1CCCN(Cc2ccc(C(F)(F)F)cn2)C(=O)c2cc3c(cc2C1)nc(N)c1cncn13 (racemic) [Example 514, 4-Amino-8-methyl-12-((5-(trifluoromethyl)pyridin-2-yl)methyl)-7,8,9,10,11,12-hexahydro-13H-azo[4,3-g]imidazo[1,5-a]quinoxalin-13-one]
ΔTm at 8 µM [1]: 10.9 °C
IC50 (HCT116 wild-type cells; [4]): 807 nM
Selectivity [2]: 55
IC50 [2, 5]: 15 nM

Nc1nc2cc3c(cc2c2c1COC2)C(=O)N(Cc1ccc(C24CC(C2)C4)cn1)CCCOC3 [Example 510, 4-Amino-12-((5-(bicyclo[1.1.1]pentan-1-yl)pyridin-2-yl)methyl)-3,7,9,10,11,12-hexahydrofuro[3,4-c][1,5]oxazolo[7,8-g]quinolin-13(1H)-one]
ΔTm at 8 µM [1]: 11.3 °C
IC50 (HCT116 wild-type cells; [4]): 771 nM
Selectivity [2]: 66
IC50 [2, 5]: 12 nM
